Measured values reported in article PMC12198407, “Preclinical and first-in-human of purinostat mesylate, a novel selective HDAC I/IIb inhibitor, in relapsed/refractory multiple myeloma and lymphoma” (Signal Transduction and Targeted Therapy, 2025).
“Also recorded” adds a separate entry of the source. Read-outs that look alike come from different tables or passages of the source.

Assays:
[1] = system: human double-hit lymphoma SUDHL-6; experiment: SUDHL-6 subcutaneous tumor model; format: in vivo, NOD/SCID mice; details: for median survival time: satellite group
[2] = system: 8 MM and 8 lymphoma cell lines; experiment: Antiproliferation assay, cell line panel (CCK8); format: cell-based; details: Homo sapiens; 72 h, all 16 cell lines
Procedure: PM, panobinostat, Pom and DXM were dissolved in DMSO and stored at -20°C freezer. Cells were seeded at a density of 1.0-3.0 × 10^4 cells/well/100 μL in 96-well plates. After overnight incubation, cells were treated with the drug-containing culture medium for 24, 48, or 72 hours, and cell viability was measured using CCK8 (Oriscience, Chengdu, China) at the indicated time points with Biotek Cytation 3 at a wavelength of 450 nm. The IC50 values were calculated using GraphPad Prism 9.4.1, and Calcusyn 2.0 software was employed to calculate the CI values.

solid tumor cells = experiment: Proliferation, MTT or Alamar Blue; format: cell-based; details: Homo sapiens
HDAC2 = HDAC2 (Homo sapiens, UniProt Q92769); experiment: HDAC enzyme activity in vitro; format: biochemical
[3] = Chronic toxicity test, intravenous; format: in vivo, Beagle dogs
Procedure: In this study, the low, medium, and high dose groups were set at 0.3, 1, and 3 mg/kg, respectively. The excipient was set at a high dose of 45 mg/kg. In the low dose group, occasional vomiting was observed; in the medium dose group, symptoms included vomiting, loose stools, and dark red stools; in the high dose group, symptoms included vomiting and dark red stools. Four dogs (4/10, 2 females and 2 males) died between days 13 and 26 of the experiment. […] The primary toxic target organs or systems included the immune system (spleen, thymus, lymph nodes), digestive system (esophagus, liver, pancreas, intestine), kidneys, heart, lungs, trachea, testes, bone marrow, and injection site. There was a dose-dependent relationship, and recovery was observed during the recovery period. The highest no serious toxicity dose (HNSTD) was determined to be 1 mg/kg.

HDAC I/IIb = system: HDAC I/IIb; set-up: method as in PMID 27186676, PMID 31439580; details: range over isoforms; read-out: IC50 against HDAC I/IIb; cited from earlier work
[4] = Plasma level in wild-type mice; format: in vivo; details: single i.v. 5 mg/kg, listed as Purinostat Mesylate
Procedure: The mean residence times (MRT) were 6.00 ± 1.00 h, 24.8 ± 1.03 h, and 23.4 ± 3.59 h, respectively. […] However, in Ighmyc mice, the plasma drug concentration after the same duration was 7.11 ± 3.15 ng/mL. […] The pharmacokinetic characteristics support the notion that spaced dosing of the drug can still maintain favorable pharmacodynamic outcomes.

HDAC10 = HDAC10 (Homo sapiens, UniProt Q969S8); experiment: HDAC enzyme activity in vitro; format: biochemical
Ramos-luc = experiment: Luciferase substrate viability assay; format: cell-based, human
[5] = system: human Burkitt lymphoma Daudi; experiment: Daudi subcutaneous tumor model; format: in vivo, NOD/SCID mice; details: for average median survival time: satellite group
[6] = Plasma protein binding, equilibrium dialysis; format: in vitro ADME; details: read-out: plasma protein binding rate (converted)
Procedure: The plasma protein binding rate of Purinostat Mesylate was measured using equilibrium dialysis in Sprague-Dawley rats, Beagle dogs, crab-eating monkeys, and human plasma.

HDAC3 = HDAC3 (Homo sapiens, UniProt O15379); experiment: HDAC enzyme activity in vitro; format: biochemical
Chain of HDAC3 (O15379 whole entry): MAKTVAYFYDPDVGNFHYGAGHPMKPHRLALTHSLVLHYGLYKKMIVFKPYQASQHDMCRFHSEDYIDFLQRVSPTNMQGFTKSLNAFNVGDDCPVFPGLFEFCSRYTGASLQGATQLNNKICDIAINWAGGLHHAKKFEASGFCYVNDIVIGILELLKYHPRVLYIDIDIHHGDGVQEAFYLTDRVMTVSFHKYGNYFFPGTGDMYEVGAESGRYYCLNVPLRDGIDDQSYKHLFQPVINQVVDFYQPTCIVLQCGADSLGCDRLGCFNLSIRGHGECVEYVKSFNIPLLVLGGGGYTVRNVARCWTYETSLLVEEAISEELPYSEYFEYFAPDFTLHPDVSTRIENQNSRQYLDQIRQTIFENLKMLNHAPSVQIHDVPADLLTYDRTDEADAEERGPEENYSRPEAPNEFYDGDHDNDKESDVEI
Chain of HDAC3 (Q9Y618 395-489 partner limits assumed): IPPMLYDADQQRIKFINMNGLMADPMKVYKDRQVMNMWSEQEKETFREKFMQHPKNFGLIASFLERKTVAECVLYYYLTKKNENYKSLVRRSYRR

Chain of HDAC10 (Q969S8 whole entry): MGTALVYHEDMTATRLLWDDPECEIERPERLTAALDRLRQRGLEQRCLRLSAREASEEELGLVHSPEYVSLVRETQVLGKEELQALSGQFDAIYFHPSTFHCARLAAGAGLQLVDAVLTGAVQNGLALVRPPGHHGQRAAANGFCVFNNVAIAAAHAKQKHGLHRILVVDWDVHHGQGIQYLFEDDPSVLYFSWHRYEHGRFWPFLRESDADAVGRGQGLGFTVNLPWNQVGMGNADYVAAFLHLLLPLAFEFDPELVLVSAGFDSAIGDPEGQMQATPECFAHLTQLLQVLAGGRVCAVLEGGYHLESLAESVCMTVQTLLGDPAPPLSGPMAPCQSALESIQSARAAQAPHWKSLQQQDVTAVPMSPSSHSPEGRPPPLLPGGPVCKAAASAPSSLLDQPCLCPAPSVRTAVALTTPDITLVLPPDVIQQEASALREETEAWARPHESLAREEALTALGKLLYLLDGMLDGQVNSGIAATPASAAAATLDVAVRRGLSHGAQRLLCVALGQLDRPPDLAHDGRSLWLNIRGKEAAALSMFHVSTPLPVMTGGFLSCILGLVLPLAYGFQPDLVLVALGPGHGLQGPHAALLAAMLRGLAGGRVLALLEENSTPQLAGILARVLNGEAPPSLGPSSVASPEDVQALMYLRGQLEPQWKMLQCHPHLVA
Chain of HDAC2 (Q92769 whole entry): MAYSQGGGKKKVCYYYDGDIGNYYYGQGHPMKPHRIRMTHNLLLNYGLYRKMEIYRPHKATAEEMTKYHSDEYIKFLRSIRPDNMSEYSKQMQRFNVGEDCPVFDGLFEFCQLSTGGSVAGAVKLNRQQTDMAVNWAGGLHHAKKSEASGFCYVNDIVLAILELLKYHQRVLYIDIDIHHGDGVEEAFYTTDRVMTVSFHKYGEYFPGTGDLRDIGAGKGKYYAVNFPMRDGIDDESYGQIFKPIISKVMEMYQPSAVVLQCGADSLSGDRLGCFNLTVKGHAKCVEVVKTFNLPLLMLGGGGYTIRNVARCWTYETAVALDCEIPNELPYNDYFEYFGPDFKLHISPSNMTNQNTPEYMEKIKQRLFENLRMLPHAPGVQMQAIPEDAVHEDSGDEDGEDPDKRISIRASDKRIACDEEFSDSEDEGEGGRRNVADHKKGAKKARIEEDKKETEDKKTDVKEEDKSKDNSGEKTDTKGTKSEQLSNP

## CN(Cc1nc2c(N3CCOCC3)nc(-c3ccc(N)cc3)nc2n1C)c1ncc(C(=O)NO)cn1.CS(=O)(=O)O [PM, 2-(((2-(4-Aminophenyl)-9-methyl-6-(4-morpholinyl)-9H-purine-8-yl)methyl)methylamino)-N-hydroxy-5-pyrimidine-carboxamide Mesylate]
[1]; 2.5 mg/kg
  T/C: 47.88±9.41%
[1]; 2.5 mg/kg i.v. three times a week, mean of two batches
  tumor inhibition rate: 58.99±2.32%
[1]; 5 mg/kg
  T/C: 34.37±3.79%
  tumor inhibition rate: 69.35±3.47%
[1]; 10 mg/kg
  T/C: 29.62±1.77%
  tumor inhibition rate: 75.81±8.28%
[1]; 20 mg/kg
  T/C: 21.28±6.72%
  tumor inhibition rate: 81.40±5.38%
  median survival time: 30 days
[1]; 10 mg/kg, death = tumor 3000 mm³
  median survival time: 30 days
[2]
  IC50: < 5 nM
Solid tumor cells; all lines
  IC50: < 100 nM
Solid tumor cells; most tumor cell lines
  IC50: < 50 nM
HDAC2
  IC50: 1.4 nM
[3]; both sexes, beagle, dog, in vivo, intravenous
  NOAEL: < 0.3 mg/kg
[3]; both, beagle, dog, in vivo, intravenous
  highest no serious toxicity dose (HNSTD): 1 mg/kg
[3]; high dose 3 mg/kg, days 13 to 26
  dogs that died: 4/10
[3]; high dose group, male dogs
  prolongation of QTc: 9.6%
HDAC I/IIb
  IC50: 0.81 to 11.5 nM
[4]
  plasma drug concentration at 24 hours: no drug concentration was detected in the plasma at 24 hours; also recorded: no drug concentration was detectable in plasma after 24 hours; also recorded: undetectable
HDAC10
  IC50: 1.1 nM
Ramos-luc
  time until effect detectable: 24 h
[5]; 2.5 mg/kg
  T/C: 17.75±2.47%
[5]; 2.5 mg/kg, mean of two batches
  tumor inhibition rate: 82.84 ± 2.18%
[5]; 5 mg/kg
  T/C: 10.40±2.97%
  tumor inhibition rate: 87.86 ± 2.38%
  average median survival time: 54.5 ± 5.0 days
[5]; 10 mg/kg
  T/C: 7.35±3.75%
  tumor inhibition rate: 90.86 ± 3.84%
  average median survival time: 58.5 ± 2.1 days
[5]; 20 mg/kg, paused day 28, resumed day 35
  median survival time: 54.4 days
[6]; Beagle, dog
  fraction unbound at 0.2 µM: 0.169
  fraction unbound at 2 µM: 0.164
  fraction unbound at 10 µM: 0.167
[6]; Sprague-Dawley, rat
  fraction unbound at 0.2 µM: 0.057
  fraction unbound at 2 µM: 0.045
  fraction unbound at 10 µM: 0.045
[6]; human
  fraction unbound at 0.2 µM: 0.097
  fraction unbound at 2 µM: 0.1
  fraction unbound at 10 µM: 0.096
[6]; monkey
  fraction unbound at 0.2 µM: 0.216
  fraction unbound at 2 µM: 0.205
  fraction unbound at 10 µM: 0.21
HDAC3
  IC50: 1.7 nM
